Source: patent US20230085307A1, “PYRIDAZINONE COMPOUND AND HERBICIDE” (NISSAN CHEMICAL CORPORATION, priority 2019, published 2023)

Columns and labels:
[1] = test system: Japanese bulrush; experiment: Test Example 1: herbicidal activity, application before weed generation under submerged conditions (Table 16, symbol B); format: in vivo, Japanese bulrush (Schoenoplectus juncoides); settings: for Herbicidal effect on B: Japanese bulrush (grade 0-5): 320 g/ha applied herbicide
Summary of the method: (§1)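 Alluvial soil was flooded to 4 cm depth, weed seeds were sown mixed and 2.5-leaf rice seedlings were transplanted. On sowing day, the compound's emulsion, diluted in water to a set dose, was applied to the water surface. Plants grew at 25–30 °C and were scored 0–5 after three weeks.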

[2] = test system: oval-leafed pondweed; experiment: Test Example 1: herbicidal activity, application before weed generation under submerged conditions (Table 16, symbol C); format: in vivo, oval-leafed pondweed (Monochoria vaginalis); settings: for Herbicidal effect on C: oval-leafed pondweed (grade 0-5): 320 g/ha applied herbicide
Summary of the method: as §1

[3] = test system: oval-leafed pondweed; experiment: Test Example 2: herbicidal activity, application during weed generation under submerged conditions (Table 17, symbol C); format: in vivo, oval-leafed pondweed (Monochoria vaginalis); settings: application during weed generation, submerged conditions
Summary of the method: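 Herbicide emulsion, diluted with water to the chosen amount, is applied onto 4 cm floodwater over alluvial soil where the weeds were co-sown and raised at 25–30° C. Application timing: 1–2 leaves. Assessment: three weeks afterwards.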

[4] = test system: rice flat sedge; experiment: Test Example 3: herbicidal effect by foliage application, Wagner pot (Table 18, symbol E); format: in vivo, rice flat sedge (Cyperus iria); settings: for herbicidal effect on E (rice flat sedge), rating 0-5: 320 g/ha; for herbicidal effect on E: rice flat sedge: amount of applied herbicide 320 g/ha
Summary of the method: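 Plants were sown in alluvial soil held under 0.1–0.5 cm standing water and grown 14 days in a greenhouse at 25–30 °C. An emulsifiable formulation, water-diluted to the set dose, was then sprayed onto the foliage, and effects were scored three weeks later using previously defined criteria.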

[5] = test system: green foxtail; experiment: Test Example 4: herbicidal effect by soil treatment (Table 19, symbol G); format: in vivo, green foxtail (Setaria viridis)
Summary of the method: (§2)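 Applied as a water-diluted emulsion, the compound was sprayed onto soil covering newly sown seeds. Evaluation came three weeks after application, in a greenhouse held at 25° C. to 30° C.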

[6] = test system: barnyard grass; experiment: Test Example 4: herbicidal effect by soil treatment (Table 19, symbol H); format: in vivo, barnyard grass (Echinochloa crus-galli)
Summary of the method: as §2

[7] = test system: wild oat; experiment: Test Example 4: herbicidal effect by soil treatment (Table 19, symbol I); format: in vivo, wild oat (Avena fatua)
Summary of the method: as §2

[8] = test system: redroot pigweed; experiment: Test Example 4: herbicidal effect by soil treatment (Table 19, symbol N); format: in vivo, redroot pigweed (Amaranthus retroflexus)
Summary of the method: as §2

[9] = test system: chickweed; experiment: Test Example 4: herbicidal effect by soil treatment (Table 19, symbol P); format: in vivo, common chickweed (Stellaria media)
Summary of the method: as §2

[10] = test system: green foxtail; experiment: Test Example 5: herbicidal effect by foliage application, plastic box (Table 20, symbol G); format: in vivo, green foxtail (Setaria viridis); settings: foliage application
Summary of the method: (§3)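 Sow seeds spot-wise in sterilized diluvial soil; cover with ~1.5 cm soil. Grow 14 days in greenhouse, 25° C. to 30° C. Spray foliage with emulsion diluted to predetermined amount. Rate effect after 3 weeks.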

[11] = test system: barnyard grass; experiment: Test Example 5: herbicidal effect by foliage application, plastic box (Table 20, symbol H); format: in vivo, barnyard grass (Echinochloa crus-galli); settings: foliage application
Summary of the method: as §3

[12] = test system: wild oat; experiment: Test Example 5: herbicidal effect by foliage application, plastic box (Table 20, symbol I); format: in vivo, wild oat (Avena fatua); settings: foliage application
Summary of the method: as §3

[13] = test system: blackgrass; experiment: Test Example 5: herbicidal effect by foliage application, plastic box (Table 20, symbol J); format: in vivo, blackgrass (Alopecurus myosuroides); settings: foliage application
Summary of the method: as §3

[14] = test system: velvetleaf; experiment: Test Example 5: herbicidal effect by foliage application, plastic box (Table 20, symbol M); format: in vivo, velvetleaf (Abutilon theophrasti); settings: foliage application
Summary of the method: as §3

[15] = test system: redroot pigweed; experiment: Test Example 5: herbicidal effect by foliage application, plastic box (Table 20, symbol N); format: in vivo, redroot pigweed (Amaranthus retroflexus); settings: foliage application
Summary of the method: as §3

[16] = test system: chickweed; experiment: Test Example 5: herbicidal effect by foliage application, plastic box (Table 20, symbol P); format: in vivo, common chickweed (Stellaria media); settings: foliage application
Summary of the method: as §3

[17] = AAH 320 g/ha, three weeks after application
[18] = amount of applied herbicide 320 g/ha
[19] = 320 g/ha, evaluated three weeks after application
[20] = amount of applied herbicide 274 g/ha
[21] = 274 g/ha, three weeks after application

| SMILES | Herbicidal effect on B: Japanese bulrush (grade 0-5) [1] | Herbicidal effect on C: oval-leafed pondweed (grade 0-5) [2] | herbicidal effect rating, C: oval-leafed pondweed ([3]; AAH 320 g/ha) | herbicidal effect on E (rice flat sedge), rating 0-5 [4] | herbicidal effect on E: rice flat sedge [4] | G: green foxtail, herbicidal effect rating [5, 18] | H: barnyard grass, herbicidal effect rating [6, 18] | I: wild oat, herbicidal effect rating [7, 18] | N: redroot pigweed, herbicidal effect rating [8, 18] | P: chickweed, herbicidal effect rating [9, 18] | herbicidal effect on G: green foxtail [10, 19] | herbicidal effect on H: barnyard grass [11, 19] | herbicidal effect on I: wild oat [12, 19] | herbicidal effect on J: blackgrass [13, 19] | herbicidal effect on M: velvetleaf [14, 19] | herbicidal effect on N: redroot pigweed [15, 19] | herbicidal effect on P: chickweed [16, 19] | also measured |
| --- | --- | --- | --- | --- | --- | --- | --- | --- | --- | --- | --- | --- | --- | --- | --- | --- | --- | --- |
| Cc1nn(C)c(=O)c(-c2c(-c3ccc(OCC(F)(F)F)cc3)sc3ccccc23)c1O [1-140] | 2 (Herbicidal rate of 20% or more and less than 40%) | 0 (Herbicidal rate of 5% or less (almost no effect)) | 0 (Herbicidal rate of 5% or less (almost no effect)) | 5 (Herbicidal rate of 90% or more (almost completely withered)) |  |  |  |  |  |  |  |  |  |  |  |  |  | G: green foxtail, herbicidal effect rating ([5]; AAH 320 g/ha): 5 (Herbicidal rate of 90% or more (almost completely withered)); H: barnyard grass, herbicidal effect rating ([6]; AAH 320 g/ha): 5 (Herbicidal rate of 90% or more (almost completely withered)); I: wild oat, herbicidal effect rating ([7]; AAH 320 g/ha): 0 (Herbicidal rate of 5% or less (almost no effect)); N: redroot pigweed, herbicidal effect rating ([8]; AAH 320 g/ha): 5 (Herbicidal rate of 90% or more (almost completely withered)); P: chickweed, herbicidal effect rating ([9]; AAH 320 g/ha): 4 (Herbicidal rate of 70% or more and less than 90%); G: green foxtail, herbicidal effect [10, 17]: 5 (Herbicidal rate of 90% or more (almost completely withered)); H: barnyard grass, herbicidal effect [11, 17]: 5 (Herbicidal rate of 90% or more (almost completely withered)); I: wild oat, herbicidal effect [12, 17]: 0 (Herbicidal rate of 5% or less (almost no effect)); J: blackgrass, herbicidal effect [13, 17]: 4 (Herbicidal rate of 70% or more and less than 90%); M: velvetleaf, herbicidal effect [14, 17]: 4 (Herbicidal rate of 70% or more and less than 90%); N: redroot pigweed, herbicidal effect [15, 17]: 4 (Herbicidal rate of 70% or more and less than 90%); P: chickweed, herbicidal effect [16, 17]: 5 (Herbicidal rate of 90% or more (almost completely withered)) |
| CCCC(=O)Oc1c(C)nn(C)c(=O)c1-c1c(-c2cccc(F)c2)sc2ccc(F)cc12 [2-202] | 0 (Herbicidal rate of 5% or less (almost no effect)) | 0 (Herbicidal rate of 5% or less (almost no effect)) | 4 (Herbicidal rate of 70% or more and less than 90%) |  | 5 (Herbicidal rate of 90% or more (almost completely withered)) | 3 (Herbicidal rate of 40% or more and less than 70%) | 4 (Herbicidal rate of 70% or more and less than 90%) | 0 (Herbicidal rate of 5% or less (almost no effect)) | 5 (Herbicidal rate of 90% or more (almost completely withered)) | 4 (Herbicidal rate of 70% or more and less than 90%) |  |  |  |  |  |  |  | herbicidal effect on G: green foxtail (criteria 0-5) [10, 19]: 4 (Herbicidal rate of 70% or more and less than 90%); herbicidal effect on H: barnyard grass (criteria 0-5) [11, 19]: 4 (Herbicidal rate of 70% or more and less than 90%); herbicidal effect on I: wild oat (criteria 0-5) [12, 19]: 1 (Herbicidal rate of 5% or more and less than 20%); herbicidal effect on J: blackgrass (criteria 0-5) [13, 19]: 1 (Herbicidal rate of 5% or more and less than 20%); herbicidal effect on M: velvetleaf (criteria 0-5) [14, 19]: 5 (Herbicidal rate of 90% or more (almost completely withered)); herbicidal effect on N: redroot pigweed (criteria 0-5) [15, 19]: 5 (Herbicidal rate of 90% or more (almost completely withered)); herbicidal effect on P: chickweed (criteria 0-5) [16, 19]: 5 (Herbicidal rate of 90% or more (almost completely withered)) |
| Cc1nn(C)c(=O)c(-c2c(-c3ccc(C#N)cc3)sc3ccc(Cl)cc23)c1O [2-112] | 2 (Herbicidal rate of 20% or more and less than 40%) | 0 (Herbicidal rate of 5% or less (almost no effect)) | 0 (Herbicidal rate of 5% or less (almost no effect)) |  | 5 (Herbicidal rate of 90% or more (almost completely withered)) | 0 (Herbicidal rate of 5% or less (almost no effect)) | 0 (Herbicidal rate of 5% or less (almost no effect)) | 0 (Herbicidal rate of 5% or less (almost no effect)) | 5 (Herbicidal rate of 90% or more (almost completely withered)) | 5 (Herbicidal rate of 90% or more (almost completely withered)) | 4 (Herbicidal rate of 70% or more and less than 90%) | 4 (Herbicidal rate of 70% or more and less than 90%) | 5 (Herbicidal rate of 90% or more (almost completely withered)) | 5 (Herbicidal rate of 90% or more (almost completely withered)) | 4 (Herbicidal rate of 70% or more and less than 90%) | 5 (Herbicidal rate of 90% or more (almost completely withered)) | 5 (Herbicidal rate of 90% or more (almost completely withered)) |  |
| COCCOc1ccc(-c2sc3ccc(F)cc3c2-c2c(O)c(C)nn(C)c2=O)cc1 [2-056] | 5 (Herbicidal rate of 90% or more (almost completely withered)) | 5 (Herbicidal rate of 90% or more (almost completely withered)) | 3 (Herbicidal rate of 40% or more and less than 70%) | 5 (Herbicidal rate of 90% or more (almost completely withered)) |  |  |  |  |  |  | 5 (Herbicidal rate of 90% or more (almost completely withered)) | 5 (Herbicidal rate of 90% or more (almost completely withered)) | 4 (Herbicidal rate of 70% or more and less than 90%) | 5 (Herbicidal rate of 90% or more (almost completely withered)) | 5 (Herbicidal rate of 90% or more (almost completely withered)) | 5 (Herbicidal rate of 90% or more (almost completely withered)) | 5 (Herbicidal rate of 90% or more (almost completely withered)) | herbicidal effect rating, G: green foxtail ([5]; 320 g/ha): 5 (Herbicidal rate of 90% or more (almost completely withered)); herbicidal effect rating, H: barnyard grass ([6]; 320 g/ha): 5 (Herbicidal rate of 90% or more (almost completely withered)); herbicidal effect rating, I: wild oat ([7]; 320 g/ha): 0 (Herbicidal rate of 5% or less (almost no effect)); herbicidal effect rating, N: redroot pigweed ([8]; 320 g/ha): 5 (Herbicidal rate of 90% or more (almost completely withered)); herbicidal effect rating, P: chickweed ([9]; 320 g/ha): 5 (Herbicidal rate of 90% or more (almost completely withered)) |
| COc1ccccc1-c1sc2cc(C)ccc2c1-c1c(O)c(C)nn(C)c1=O [3-049] |  |  |  |  |  |  |  |  |  |  |  |  |  |  |  |  |  | Herbicidal effect, B: Japanese bulrush [1, 20]: 3 (Herbicidal rate of 40% or more and less than 70%); Herbicidal effect, C: oval-leafed pondweed [2, 20]: 3 (Herbicidal rate of 40% or more and less than 70%); herbicidal effect rating, C: oval-leafed pondweed ([3]; AAH 274 g/ha): 2 (Herbicidal rate of 20% or more and less than 40%); herbicidal effect on rice flat sedge (E) ([4]; 274 g/ha): 3 (Herbicidal rate of 40% or more and less than 70%); G: green foxtail, herbicidal effect grade [5, 20]: 3 (Herbicidal rate of 40% or more and less than 70%); H: barnyard grass, herbicidal effect grade [6, 20]: 3 (Herbicidal rate of 40% or more and less than 70%); I: wild oat, herbicidal effect grade [7, 20]: 3 (Herbicidal rate of 40% or more and less than 70%); N: redroot pigweed, herbicidal effect grade [8, 20]: 4 (Herbicidal rate of 70% or more and less than 90%); P: chickweed, herbicidal effect grade [9, 20]: 4 (Herbicidal rate of 70% or more and less than 90%); G: green foxtail, herbicidal effect grade [10, 21]: 5 (Herbicidal rate of 90% or more (almost completely withered)); H: barnyard grass, herbicidal effect grade [11, 21]: 4 (Herbicidal rate of 70% or more and less than 90%); I: wild oat, herbicidal effect grade [12, 21]: 5 (Herbicidal rate of 90% or more (almost completely withered)); J: blackgrass, herbicidal effect grade [13, 21]: 5 (Herbicidal rate of 90% or more (almost completely withered)); M: velvetleaf, herbicidal effect grade [14, 21]: 5 (Herbicidal rate of 90% or more (almost completely withered)); N: redroot pigweed, herbicidal effect grade [15, 21]: 5 (Herbicidal rate of 90% or more (almost completely withered)); P: chickweed, herbicidal effect grade [16, 21]: 5 (Herbicidal rate of 90% or more (almost completely withered)) |
